# Where a SMILES comes first, the peptide text is derived from it. [ ]: non-standard residue; d: D form. The star is where a group is joined. Boc = CC(C)(C)OC(=O)*; OBn = c1ccc(CO*)cc1; For = O=C*
# Molecular target: T1, Substance-P receptor (Cavia porcellus, UniProt P30547)
# Assay: Displacement of specific binding of [3H]SP to tachykinin receptor 1 from the isolated guinea pig tracheal strips; call rule not given here
# T1 sequence (P30547 whole entry): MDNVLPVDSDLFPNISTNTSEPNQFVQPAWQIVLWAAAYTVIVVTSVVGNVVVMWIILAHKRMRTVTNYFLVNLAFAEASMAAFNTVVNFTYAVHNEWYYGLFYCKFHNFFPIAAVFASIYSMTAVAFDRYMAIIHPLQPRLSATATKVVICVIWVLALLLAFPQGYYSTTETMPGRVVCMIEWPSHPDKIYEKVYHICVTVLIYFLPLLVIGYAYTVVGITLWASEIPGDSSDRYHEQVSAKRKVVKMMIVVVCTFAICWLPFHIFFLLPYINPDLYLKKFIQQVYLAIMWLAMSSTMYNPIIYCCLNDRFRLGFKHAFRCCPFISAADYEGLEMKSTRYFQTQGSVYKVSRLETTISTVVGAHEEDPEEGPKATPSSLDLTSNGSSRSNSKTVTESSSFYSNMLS
row,Compound,IC50
1,CC(C)(C)OC(=O)N[C@@H](CCC(N)=O)C(=O)N[C@@H](Cc1ccccc1)C(=O)N[C@@H](Cc1ccccc1)C(=O)OCc1ccccc1,1 µM
2,NC(=O)[C@@H](Cc1c[nH]c2ccccc12)NC(=O)[C@H](Cc1ccccc1)NC(=O)[C@@H](Cc1c[nH]c2ccccc12)NC(=O)OCc1ccccc1,> 100 µM
3,O=C(N[C@@H](Cc1ccccc1)C(=O)N[C@H](Cc1c[nH]c2ccccc12)C(=O)N[C@H](Cc1c[nH]c2ccccc12)C(=O)OCc1ccccc1)OCc1ccccc1,100 µM
4,CC(C)(C)OC(=O)N[C@@H](CCC(N)=O)C(=O)N[C@H](Cc1cn(C=O)c2ccccc12)C(=O)N[C@@H](Cc1ccccc1)C(=O)OCc1ccccc1,0.09 µM
5,NC(=O)CC[C@H](NC(=O)[C@H](CCC(N)=O)NC(=O)[C@H]1CCCN1)C(=O)N[C@H](Cc1c[nH]c2ccccc12)C(=O)N[C@@H](Cc1ccccc1)C(=O)N[C@H](Cc1c[nH]c2ccccc12)C(=O)N[C@H](Cc1c[nH]c2ccccc12)C(=O)N[C@@H](Cc1ccccc1)C(N)=O,0.6 µM
6,CC(C)(C)OC(=O)N[C@@H](CCC(N)=O)C(=O)N[C@H](Cc1cn(C=O)c2ccccc12)C(=O)N[C@@H](Cc1ccccc1)C(=O)OCCc1ccccc1,0.5 µM
7,CC(C)(C)OC(=O)N[C@@H](CCC(N)=O)C(=O)N[C@H](Cc1cn(C=O)c2ccccc12)C(=O)N[C@@H](Cc1ccccc1)C(=O)OCC1CCCCC1,0.4 µM
8,NC(=O)CC[C@H](NC(=O)OCc1ccccc1)C(=O)N[C@@H](CCC(N)=O)C(=O)N[C@H](Cc1c[nH]c2ccccc12)C(=O)O,> 100 µM
9,CSCC[C@@H](NC(=O)[C@H](CCC(N)=O)NC(=O)OC(C)(C)C)C(=O)N[C@@H](Cc1ccccc1)C(=O)OCc1ccccc1,0.79 µM
10,CC(C)(C)OC(=O)N[C@@H](CCC(N)=O)C(=O)N[C@H](Cc1cn(C=O)c2ccccc12)C(=O)N1C(C(=O)c2ccccc2)CC[C@H]1C(=O)OCc1ccccc1 (stereo not given in full),0.45 µM
11,CC(C)(C)OC(=O)N[C@@H](CCC(N)=O)C(=O)N[C@H](Cc1cn(C=O)c2ccccc12)C(=O)N[C@@H](Cc1ccccc1)C(=O)O,> 100 µM
12,CC(C)(C)OC(=O)N[C@@H](CCC(N)=O)C(=O)N[C@H](Cc1c[nH]c2ccccc12)C(=O)N[C@@H](Cc1ccccc1)C(=O)OCc1ccccc1,0.55 µM
13,O=C(N[C@@H](Cc1ccccc1)C(=O)N[C@H](Cc1c[nH]c2ccccc12)C(=O)N[C@H](Cc1c[nH]c2ccccc12)C(=O)O)OCc1ccccc1,> 100 µM
14,O=C(N[C@H](Cc1c[nH]c2ccccc12)C(=O)N[C@@H](Cc1ccccc1)C(=O)N[C@H](Cc1c[nH]c2ccccc12)C(=O)O)OCc1ccccc1,23.8 µM
15,O=C(N[C@H](Cc1c[nH]c2ccccc12)C(=O)N[C@@H](Cc1ccccc1)C(=O)N[C@H](Cc1c[nH]c2ccccc12)C(=O)OCc1ccccc1)OCc1ccccc1,10 µM
16,CC(C)(C)OC(=O)N[C@@H](CCC(N)=O)C(=O)N[C@@H](Cc1cn(C=O)c2ccccc12)C(=O)N[C@@H](Cc1ccccc1)C(=O)OCc1ccccc1,0.36 µM
17,CC(C)(C)OC(=O)N1CCC[C@@H]1C(=O)N[C@@H](CCC(N)=O)C(=O)N[C@@H](CCC(N)=O)C(=O)OCc1ccccc1,100 µM
18,CC(C)(C)OC(=O)N[C@@H](CCC(N)=O)C(=O)N[C@H](Cc1cn(C=O)c2ccccc12)C(=O)N[C@@H](Cc1ccccc1)C(=O)OCc1ccc(Cl)cc1,1 µM
19,CC(C)(C)OC(=O)N[C@@H](CCC(N)=O)C(=O)N[C@H](Cc1cn(C=O)c2ccccc12)C(=O)N[C@@H](Cc1ccc(O)cc1)C(=O)OCc1ccccc1,0.39 µM
20,CC(C)C[C@@H](NC(=O)[C@H](CCC(N)=O)NC(=O)OC(C)(C)C)C(=O)N[C@@H](Cc1ccccc1)C(=O)OCc1ccccc1,1 µM
21,C[C@@H](O)[C@H](NC(=O)OC(C)(C)C)C(=O)N[C@H](Cc1cn(C=O)c2ccccc12)C(=O)N[C@@H](Cc1ccccc1)C(=O)OCc1ccccc1 (Boc-Thr-[dW](For)-Phe-OBn),0.11 µM
22,CC(C)(C)OC(=O)N[C@@H](Cc1ccc(O)cc1)C(=O)N[C@H](Cc1cn(C=O)c2ccccc12)C(=O)N[C@@H](Cc1ccccc1)C(=O)OCc1ccccc1,0.26 µM
23,CC(C)(C)OC(=O)N[C@@H](CCC(N)=O)C(=O)N[C@H](Cc1cn(C=O)c2ccccc12)C(=O)N1Cc2ccccc2CC1C(=O)OCc1ccccc1 (stereo not given in full),0.14 µM

# Results, then the compound that gave them:
row,IC50,Compound
1,> 100 µM,O=C1CC[C@@H](C(=O)N[C@H](Cc2c[nH]c3ccccc23)C(=O)N[C@@H](Cc2ccccc2)C(=O)O)N1
2,0.11 µM,CC(C)(C)OC(=O)N[C@@H](CO)C(=O)N[C@H](Cc1cn(C=O)c2ccccc12)C(=O)N[C@@H](Cc1ccccc1)C(=O)OCc1ccccc1 (Boc-Ser-[dW](For)-Phe-OBn)
3,> 100 µM,NC(=O)CC[C@H](NC(=O)[C@H](CCC(N)=O)NC(=O)[C@H]1CCCN1)C(=O)O
4,38.7 µM,CC(C)(C)OC(=O)N[C@@H](CCC(N)=O)C(=O)N[C@H](Cc1c[nH]c2ccccc12)C(=O)N[C@@H](Cc1ccccc1)C(N)=O
5,0.24 µM,CN(C(=O)[C@@H](Cc1cn(C=O)c2ccccc12)NC(=O)[C@H](CCC(N)=O)NC(=O)OC(C)(C)C)[C@@H](Cc1ccccc1)C(=O)OCc1ccccc1
6,> 100 µM,NC(=O)CC[C@H](NC(=O)[C@@H]1CCC(=O)N1)C(=O)N[C@H](Cc1c[nH]c2ccccc12)C(=O)O
7,0.38 µM,CC(C)(C)OC(=O)N[C@@H](CCC(N)=O)C(=O)N[C@H](Cc1ccccc1)C(=O)N[C@@H](Cc1ccccc1)C(=O)OCc1ccccc1
8,0.77 µM,CC(C)(C)OC(=O)N[C@@H](CCC(N)=O)C(=O)N[C@H](Cc1cn(C=O)c2ccccc12)C(=O)N[C@H](Cc1ccccc1)C(=O)OCc1ccccc1
9,> 100 µM,CC(C)(C)OC(=O)N[C@@H](CCC(N)=O)C(=O)N[C@H](Cc1c[nH]c2ccccc12)C(=O)N[C@@H](Cc1ccccc1)C(=O)O
10,> 100 µM,CC(C)(C)OC(=O)N1CCC[C@@H]1C(=O)N[C@@H](CCC(N)=O)C(=O)N[C@@H](CCC(N)=O)C(N)=O
11,0.21 µM,NC(=O)CC[C@H](N)C(=O)N[C@H](Cc1cn(C=O)c2ccccc12)C(=O)N[C@@H](Cc1ccccc1)C(=O)OCc1ccccc1
12,10 µM,NC(=O)CC[C@H](NC(=O)[C@H]1CCCN1C(=O)OCc1ccccc1)C(=O)N[C@@H](CCC(N)=O)C(=O)OCc1ccccc1
13,0.42 µM,CC(C)(C)OC(=O)NCC(=O)N[C@H](Cc1cn(C=O)c2ccccc12)C(=O)N[C@@H](Cc1ccccc1)C(=O)OCc1ccccc1
14,> 100 µM,CC(C)(C)OC(=O)N[C@H](Cc1c[nH]c2ccccc12)C(=O)N[C@H](Cc1c[nH]c2ccccc12)C(=O)N[C@@H](Cc1ccccc1)C(=O)OCc1ccccc1

# Molecular target: T1, Substance-P receptor
# Assay: In vitro inhibitory concentration that gave 50% displacement of specific binding of [3H]SP to Tachykinin receptor 1 from the isolated guinea pig tracheal strips; No inhibition at 10E-4 M.
row,IC50,Compound
1,Not Active,CC(C)(C)OC(=O)N[C@@H](CCC(N)=O)C(=O)N[C@H](Cc1cn(C=O)c2ccccc12)C(=O)N1CCC[C@H]1C(=O)OCc1ccccc1
2,Not Active,CC(C)(C)OC(=O)N[C@@H](CCC(N)=O)C(=O)N[C@H](Cc1cn(C=O)c2ccccc12)C(=O)NCC(=O)OCc1ccccc1
3,Not Active,CC(C)[C@H](NC(=O)[C@@H](Cc1cn(C=O)c2ccccc12)NC(=O)[C@H](CCC(N)=O)NC(=O)OC(C)(C)C)C(=O)OCc1ccccc1

# Source: ChEMBL document CHEMBL1126059 (J Med Chem, 1992)
